Target: T1, UPPSBf (undecaprenyl pyrophosphate synthase) (Bacteroides fragilis, UniProt Q5LI17)
T1 sequence (Q5LI17 1-244): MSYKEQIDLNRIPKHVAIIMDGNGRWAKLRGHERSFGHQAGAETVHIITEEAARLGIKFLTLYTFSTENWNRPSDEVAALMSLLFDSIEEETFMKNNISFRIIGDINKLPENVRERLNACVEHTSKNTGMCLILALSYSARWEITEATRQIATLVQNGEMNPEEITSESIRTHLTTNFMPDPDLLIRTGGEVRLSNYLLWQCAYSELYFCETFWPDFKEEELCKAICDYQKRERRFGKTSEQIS
Test: fluorescence plate assay, inhibition of […] 2AA-GPP elongation
Type: biochemical

`O=P(O)(O)OP(=O)(O)O` [diphosphate] was tested, and the IC50 was 1 ± 0.2 mM.

From PMC4341984 (Biochemistry, 2014)
